Test: Human HepG2 cell viability assay in 384 well format
Format: toxicity, cell-based
Design: dose 125 nL, time 70.5 hour; concentration not given beside the values
Conditions: HepG2 cells, read-out: Inhibition

SMILES	cytotoxicity at 70.5 h [%]
Cc1cc(CN2CCC(CNS(=O)(=O)c3ccccc3Cl)CC2)c(C)o1	-10.4
CS(=O)(=O)NCC1CCN(C(=O)Oc2ccccc2)CC1	-3.79
COc1ccc(S(=O)(=O)NCCCc2ccc(N(C)C)cc2)cc1F	-1.57
CCOc1ccc(S(=O)(=O)NCCCc2ccc(N(C)C)cc2)cc1F	0.733
CCOCC(=O)NCC1CCN(Cc2ccsc2)CC1	1.54
CCn1nccc1C(=O)Nc1nc(C)c(C(C)=O)s1	-5.2
Cc1nnc2ccc(OCCNS(=O)(=O)c3cccs3)nn12	-9.99
Cc1ccc(C)c(S(=O)(=O)NCCOc2ccc3nnc(C)n3n2)c1	42.7
CC(=O)Nc1ccc(SCC(=O)NCC2CCCO2)nn1 (centres undefined)	-2.02
COc1cccc(OC)c1C(=O)NCC(c1cccn1C)N1CCCC1 (centres undefined)	-5.44
Cn1cccc1C(CNC(=O)COc1ccc(Cl)cc1Cl)N1CCCC1 (centres undefined)	-16.7
COc1ccc(C(=O)NCC(c2cccn2C)N2CCN(C)CC2)cc1 (centres undefined)	-4.93
COc1ccc(S(=O)(=O)NCC(c2cccn2C)N(C)C)c(C)c1 (centres undefined)	-12.6
Cc1nnc(C2CCN(C(=O)c3ccsc3)CC2)s1	-5.71
COC(=O)c1ccc(C(=O)N2CCC(c3nnc(C)s3)CC2)cc1	-10.2
O=S(=O)(c1cccs1)N1CCN(Cc2nc(-c3ccco3)cs2)CC1	1.85
O=S(=O)(c1ccc(Cl)s1)N1CCN(Cc2nc(-c3ccco3)cs2)CC1	-13.8
CCS(=O)(=O)N1CCC(c2nnc(C3CC3)o2)CC1	3.63
CC(C)CNC(=O)c1cn(C(C)C)cc2c(=O)[nH]nc1-2	-7.94
CC(C)n1cc(C(=O)NCCCn2ccnc2)c2n[nH]c(=O)c-2c1	-6.63
Cc1csc(NC(=O)Cn2nc(C)ccc2=O)n1	-9.42
COCCc1nnc(NC(=O)Cc2ccccc2Cl)o1	-13.9
Cc1nccn1CC1CCN(C(=O)c2ccccc2)CC1	-7.01

SMILES	cytotoxicity at 70.5 h [%]
Cc1cccc2[nH]c(C3CCN(C(=O)c4cnc(O)cc4O)CC3)nc12	22.7
COc1ccc([C@@H]2CN(Cc3cccnc3N)C[C@H]2NC(C)=O)cc1	-8.12
CCOCC(=O)N1CCC(c2nccn2CC2CC2)CC1	1.15
Cc1nc2c(c(=O)n1C)CCN(C(=O)CCc1ccccn1)CC2	-5.46
COc1cccc(N2CCN(C(=O)CCO)CC2=O)c1	-8.46
CN1Cc2ccccc2CC1C(=O)N1CCN(CCS(C)(=O)=O)CC1 (centres undefined)	5.5
Cc1cc(=O)[nH]c(SC(C)C(=O)N2CCC(NS(C)(=O)=O)CC2)n1 (centres undefined)	2.17
O=C(NCCC1CN(Cc2c[nH]cn2)CCO1)Nc1ccccc1 (centres undefined)	-8.29
O=C(CCCn1cncn1)N1CCC2(CC1)[C@H](O)C[C@@H]2OCCO	-6.43
O=C(NCc1ccco1)c1cc(N2CC[C@@H](O)C2)ccn1	30.9
O=C(NCCc1ccncc1)c1ccc(S(=O)(=O)NC2CCC2)cc1	-9.51
CN1CCCC2(CCN(c3cccc(C#N)n3)C2)C1=O (centres undefined)	-8.81
CC(C)n1ccnc1C1CCN(C(=O)c2ccc(SCCO)cc2)CC1	-8.09
Cc1nc2c(c(N(C)C)n1)CCN(C(=O)c1sccc1S(N)(=O)=O)C2	-7
O=C(O)c1cccnc1CN1CCCCC1CCc1cccs1 (centres undefined)	12.3
O=C(Cc1ccsc1)N1CCC(Cn2cc(CCO)nn2)CC1	-14.1
CCC(C)N(Cc1cccnc1)Cc1ccc2c(c1)OCCO2 (centres undefined)	3.73
COc1cc(N2CCN(Cc3ccc(C)o3)C(CCO)C2)nc(N)n1 (centres undefined)	-4.16
COCc1nc(CNc2cc(C)nc(N3CCCCC3)n2)no1	-7.86
c1ccc(-c2nc3c(c(NCCc4c[nH]cn4)n2)CCNC3)cc1	-12.1
CCC(C)NC(=O)NCc1cc2n(n1)CCCN(C1CCCCC1)C2 (centres undefined)	4.95
O=C(CCn1cc(Cl)cn1)N1C[C@@H]2CC[C@H](C1)N(Cc1ccccn1)C2	-11.7
Cc1oc(-c2ccc(F)cc2)nc1CN1CCOCS1(=O)=O	-12.2

SMILES	cytotoxicity at 70.5 h [%]
Fc1ccc(C(CNc2ccncn2)N2CCCCC2)cc1 (centres undefined)	-13.6
CCn1ccnc1C1CCN(Cc2cccc(Cl)c2)CC1	37.8
Cc1nc(N)nc(C)c1Cc1nc(C2CC2)n[nH]1	-0.863
COc1ccc(C(=O)N2CCOC3(CNCCOC3)C2)c(OC)n1 (centres undefined)	28
O=C(NCCN1CCCCCC1)c1coc(COc2ccc(F)cc2)n1	8.68
CCOCCn1c(=O)n(CCC=C(C)C)c2cc(C(=O)O)cnc21	-4.64
Cc1ccccc1CC1(C(=O)O)CCCN(c2ncnc3[nH]ccc23)C1 (centres undefined)	-5.97
Cc1ccccc1CSc1nc(N)cc(N2CCOCC(CO)C2)n1 (centres undefined)	6.16
Cc1cc(NCCS(C)(=O)=O)nc2cc3c(cc12)CCC3	-5.3
CCNc1ncc(C(=O)NCCc2csc(-c3ncccn3)n2)cn1	5.7
CCC(CC)C(=O)NS(=O)(=O)c1ccc(C#N)cc1C(F)(F)F	-0.398
CC(C)CC(=O)NS(=O)(=O)c1ccc(C#N)cc1C(F)(F)F	-3.13
COc1ccc(Cl)cc1NCC(=O)NCc1cccnc1OC	17.6
Cn1cnc(S(=O)(=O)NCCN2CCCCCC2)c1Cl	4.34
CCC(C)C(=O)NS(=O)(=O)c1ccc(C#N)cc1C(F)(F)F (centres undefined)	-3.39
COc1ccnc(N2CCN(C(=O)c3ccn(C)c(=O)c3)CC2)n1	-1.1
COc1cc(C)nc(N2CCN(C(=O)c3ccn(C)c(=O)c3)CC2)n1	-0.122
Cc1nc(CN2CCC(N(C)Cc3nnc(C4CC4)n3C)C2)cs1 (centres undefined)	-1.39
Cc1ccccc1CNC(=O)CN1CCCC(Cc2nccn2C)C1 (centres undefined)	-1.13
CCNC(=O)NC(=O)CNC(C)(C)c1ccc2c(c1)OCO2	-4.4
CCCNC(=O)NC(=O)CNC(C)(C)c1ccc2c(c1)OCCO2	-2.49
Cc1ccc(N2CCCN(C(=O)CCC3CCCO3)CC2)nn1 (centres undefined)	4.12
COc1ccccc1N1CCC(CNCc2ccc(C#N)cc2)C1 (centres undefined)	2.02

SMILES	cytotoxicity at 70.5 h [%]
Cc1cc(CN2CCC(N(C)Cc3nnc(C4CC4)n3C)C2)on1 (centres undefined)	-2.5
Cc1nn(C)c(Cl)c1C1CCCN1C(=O)c1ccc(O)nc1 (centres undefined)	23.1
CC1COCCN1Cc1nc(-c2cccc(C(F)(F)F)c2)no1 (centres undefined)	-2.89
Cc1nn(C)c(N(C)C)c1CNCc1cccc(Cn2ccnc2)c1	3.64
O=C(CCc1nccs1)N1CCCC(n2cccn2)C1 (centres undefined)	1.23
Cc1cnn(C2CCCN(C(=O)CCCc3ccccn3)C2)c1 (centres undefined)	-1.28
CC(C)n1cc(CN2CCCN(C(=O)CC3CCCO3)CC2)cn1 (centres undefined)	-4.54
Cc1nc(C)n(CC2CCCN(Cc3cccnc3)C2)n1 (centres undefined)	-0.814
CC(C(=O)Nc1ccc(N2CCCCC2)nc1)n1ccnc1 (centres undefined)	25.5
COc1c(C2CCCN2C(=O)c2ccc3c(c2)OCO3)c(C)nn1C (centres undefined)	-2.19
COc1c(CNCc2cccc(Cn3cncn3)c2)c(C)nn1C	-0.463
Cc1nn(C)c(Cl)c1C1CCCN1C(=O)c1cccc(C#N)c1 (centres undefined)	0.647
COc1cccc(-c2noc(CN3CCOCC3C)n2)c1 (centres undefined)	-2.13
CC(C(=O)Nc1ccc(N2CCCCC2)nc1)n1cncn1 (centres undefined)	26.7
O=C(NCC1CCCOC1)c1ccc(-c2ccccc2)[nH]c1=O (centres undefined)	0.0722
Cc1cccc(-c2ccc(C(=O)NCC3CCCOC3)c(=O)[nH]2)c1 (centres undefined)	-9.36
O=C(NCC1CCOC1)c1ccc(-c2ccccc2)[nH]c1=O (centres undefined)	-7.11
Cc1cnn(C2CCCN(C(=O)CCc3c(C)noc3C)C2)c1 (centres undefined)	-2.08
Cc1nn(CC(C)C)c(N(C)C)c1CNCc1ccccc1CO	-0.0473
Cc1nccn1CCCC(=O)N1CCCC(c2noc(C(C)C)n2)C1 (centres undefined)	-2.96
CC(C)c1nc(C2CCCN(C(=O)CCn3cncn3)C2)no1 (centres undefined)	-2.58
Cc1nn(C)c(Cl)c1C1CCCN1C(=O)c1ccoc1C (centres undefined)	-4.13
Cc1nn(C)c(Cl)c1C1CCCN1C(=O)c1ccc2c(c1)COC2 (centres undefined)	-0.781

SMILES	cytotoxicity at 70.5 h [%]
Cc1nc(CN2CCCC(c3cc(C(N)=O)[nH]n3)C2)oc1C (centres undefined)	-1.85
COc1ccccc1CNC(C)c1ccc2[nH]c(=O)[nH]c2c1 (centres undefined)	1.17
Cc1ccccc1C1(C(=O)NCCN2CCCC(C)C2)CCOCC1 (centres undefined)	32.7
Cc1ccccc1C1(C(=O)NCCN2CCCCC2C)CCOCC1 (centres undefined)	-6.68
Cc1ccccc1C1(C(=O)NCCN(C)C)CCOCC1	-3.78
c1cc(-c2noc(CN3CCn4c(nnc4C4CC4)C3)n2)cs1	-19.2
Cc1nc2n(n1)CC(NCc1cnn(-c3ccccc3)n1)CC2 (centres undefined)	-9.59
COc1ccc(NC(=O)NCc2ccnc(N(C)C)c2)cn1	14.3
O=C(c1sccc1Br)N(Cc1cccnc1)C1CC1	-13.1
Cc1cnn(C2CCCN(C(=O)c3cccc(-n4cnnn4)c3)C2)c1 (centres undefined)	-3.6
Cc1nnc2n1CCN(Cc1nc(-c3ccoc3)no1)C2	13.6
CCC(=O)N1CCN(C(=O)NCCOc2ccc3c(c2)CCC3)CC1	-8.5
Cc1ccc(-c2nnc(CN3CCCC(Cn4cncn4)C3)o2)cc1 (centres undefined)	-1.97
c1ccc(-c2nnc(CN3CCCC(Cn4cncn4)C3)o2)cc1 (centres undefined)	-7.29
O=C(O)c1cc(S(=O)(=O)N2CCOc3ccccc32)cc(Cl)c1Cl	-9.63
O=C(O)c1ccc(F)c(S(=O)(=O)N2CCOc3ccccc32)c1	-4.17
Cc1cc(C)c(C(=O)N2CCOCC2c2c(C)n[nH]c2C)o1 (centres undefined)	-6.5
Cc1nccn1C1CCCN(C(=O)c2sccc2-n2cnnn2)C1 (centres undefined)	-8.22
CC(NCc1c(C(C)C)nn(C)c1N1CCOCC1)C(=O)N(C)C (centres undefined)	23
Cc1nn(C)c(N(C)C)c1CNCCS(C)(=O)=O	20.1
c1cnc(-c2nc(CNC3CCc4ncnn4C3)cs2)nc1 (centres undefined)	-6.68
Cc1cc(C(=O)N2CCN(C)CC2)nn1CC(=O)NCc1cccs1	-4.64
